Source: patent publication EP0052437A1, “Antibacterial compounds, processes for their preparation and compositions containing them” (BEECHAM GROUP PLC, priority 1980, dated 1982)
≈ marks a conversion by molar mass, not a printed value.

What was measured:
Type in all cases: cell-based
M. suipneumoniae JF 435 = experiment: Anti-mycoplasmal in vitro MIC; conditions: Mesomycoplasma hyopneumoniae, JF435, 144 h, Friis broth solidified with 0.9% agarose, 6 days incubation at 37°C
M. suipneumoniae HK(2) = experiment: Anti-mycoplasmal in vitro MIC; conditions: Mesomycoplasma hyopneumoniae, 144 h, Friis broth solidified with 0.9% agarose, 6 days incubation at 37°C
M. suipneumoniae Str. 11 = experiment: Anti-mycoplasmal in vitro MIC; conditions: Mesomycoplasma hyopneumoniae, 144 h, Friis broth solidified with 0.9% agarose, 6 days incubation at 37°C
[1] = system: M. suipneumoniae J2206/183b; experiment: Anti-mycoplasmal in vitro MIC; conditions: Mesomycoplasma hyopneumoniae, 144 h, Friis broth solidified with 0.9% agarose, 6 days incubation at 37°C
M. suipneumoniae MS 16 = experiment: Anti-mycoplasmal in vitro MIC; conditions: Mesomycoplasma hyopneumoniae, MS16, 144 h, Friis broth solidified with 0.9% agarose, 6 days incubation at 37°C
[2] = system: M. suipneumoniae PW/C/210; experiment: Anti-mycoplasmal in vitro MIC; conditions: Mesomycoplasma hyopneumoniae, 144 h, Friis broth solidified with 0.9% agarose, 6 days incubation at 37°C
M. suipneumoniae LABER = experiment: Anti-mycoplasmal in vitro MIC; conditions: Mesomycoplasma hyopneumoniae, 144 h, Friis broth solidified with 0.9% agarose, 6 days incubation at 37°C
M. suipneumoniae UCD 1 = experiment: Anti-mycoplasmal in vitro MIC; conditions: Mesomycoplasma hyopneumoniae, UCD1, 144 h, Friis broth solidified with 0.9% agarose, 6 days incubation at 37°C
M. suipneumoniae TAM 6N = experiment: Anti-mycoplasmal in vitro MIC; conditions: Mesomycoplasma hyopneumoniae, TAM6N, 144 h, Friis broth solidified with 0.9% agarose, 6 days incubation at 37°C
[3] = system: M. suipneumoniae ATCC 25095; experiment: Anti-mycoplasmal in vitro MIC; conditions: Mesomycoplasma hyopneumoniae, ATCC25095, 144 h, Friis broth solidified with 0.9% agarose, 6 days incubation at 37°C
M. hyorhinis ATCC 23234 = experiment: Anti-mycoplasmal in vitro MIC; conditions: Mesomycoplasma hyorhinis, ATCC23234, 144 h, Friis broth solidified with 0.9% agarose, 6 days incubation at 37°C
M. hyorhinis ATCC 25021 = experiment: Anti-mycoplasmal in vitro MIC; conditions: Mesomycoplasma hyorhinis, ATCC25021, 144 h, Friis broth solidified with 0.9% agarose, 6 days incubation at 37°C
[4] = system: M. hyosynoviae ATCC 25591; experiment: Anti-mycoplasmal in vitro MIC; conditions: 144 h, Friis broth solidified with 0.9% agarose, 6 days incubation at 37°C
[5] = system: M. bovigenitalium ATCC 14173; experiment: Anti-mycoplasmal in vitro MIC; conditions: 144 h, Friis broth solidified with 0.9% agarose, 6 days incubation at 37°C
Staph. aureus Oxford = experiment: Veterinary bacteria MIC; conditions: Staphylococcus aureus, Diagnostic Sensitivity Test Agar, 18 hours at 37°C
Procedure: The values were determined using a two fold serial dilutions.in Diagnostic Sensitivity Test Agar with an inoculum of 10^4 organisms and incubation for 18 hours at 37°C.

[6] = system: Haemophilus influenzae Q1; experiment: Human bacteria MIC; conditions: nutrient agar with 5% chocolated horse blood, 18 hours at 37°C
Procedure: (§1) The values were determined by serial dilutions in nutrient agar with 5% chocolated horse blood after incubations for 18 hours at 37 °C.

[7] = system: Haemophilus influenzae Wy21; experiment: Human bacteria MIC; conditions: nutrient agar with 5% chocolated horse blood, 18 hours at 37°C
Procedure: as §1

Strep. 2788-B = experiment: Human bacteria MIC; conditions: nutrient agar with 5% chocolated horse blood, 18 hours at 37°C
Procedure: as §1

Strep. pneumoniae CN33 = experiment: Human bacteria MIC; conditions: Streptococcus pneumoniae, nutrient agar with 5% chocolated horse blood, 18 hours at 37°C
Procedure: as §1

[8] = system: Strep. pyogenes R80/421-A; experiment: Human bacteria MIC; conditions: Streptococcus pyogenes, nutrient agar with 5% chocolated horse blood, 18 hours at 37°C
Procedure: as §1

M. bovis NCTC 10131 = experiment: microbe, parasite or virus in culture; conditions: NCTC10131, 144 h
[9] = system: Treponema hyodysenterial B10; experiment: Swine dysentery MIC (inhibition of β-haemolysis); conditions: 72 h, Strain B10, horse blood agar, 37°C for 3 days, anaerobic, lowest concentration to inhibit β-haemolysis
Procedure: (§2) The activity of the compounds of Examples 2 and 3 against various strains of Treponema hyodysenterial, associated with swine dysentry, were determined.
(§3) MIC values (µg/ml) of the compounds were determined by incorporating the compounds in horse blood agar, inoculating (multi-point) with 0.001 ml of 3 day growth from base of blood slope (+ 1 ml foetal calf serum) and incubating at 37°C for 3 days under aneorobic conditions (Gas Pak 150). The MIC values were taken as the lowest concentrations to inhibit β-haemolysis.

[10] = system: Treponema hyodysenterial Navis; experiment: Swine dysentery MIC (inhibition of β-haemolysis); conditions: 72 h, Strain Navis, horse blood agar, 37°C for 3 days, anaerobic, lowest concentration to inhibit β-haemolysis
Procedure: as §2, §3

[11] = system: Treponema hyodysenterial P23; experiment: Swine dysentery MIC (inhibition of β-haemolysis); conditions: 72 h, Strain P23, horse blood agar, 37°C for 3 days, anaerobic, lowest concentration to inhibit β-haemolysis
Procedure: as §2, §3

[12] = system: Treponema hyodysenterial S73/2; experiment: Swine dysentery MIC (inhibition of β-haemolysis); conditions: 72 h, Strain S73/2, horse blood agar, 37°C for 3 days, anaerobic, lowest concentration to inhibit β-haemolysis
Procedure: as §2, §3

[13] = system: Treponema hyodysenterial S77/10; experiment: Swine dysentery MIC (inhibition of β-haemolysis); conditions: 72 h, Strain S77/10, horse blood agar, 37°C for 3 days, anaerobic, lowest concentration to inhibit β-haemolysis
Procedure: as §2, §3

[14] = system: Treponema hyodysenterial S77/2; experiment: Swine dysentery MIC (inhibition of β-haemolysis); conditions: 72 h, Strain S77/2, horse blood agar, 37°C for 3 days, anaerobic, lowest concentration to inhibit β-haemolysis
Procedure: as §2, §3

[15] = system: Treponema hyodysenterial TH3; experiment: Swine dysentery MIC (inhibition of β-haemolysis); conditions: 72 h, Strain TH3, horse blood agar, 37°C for 3 days, anaerobic, lowest concentration to inhibit β-haemolysis
Procedure: as §2, §3

Row | SMILES | MIC (M. suipneumoniae JF 435) [µg/mL] | MIC (M. suipneumoniae HK(2)) [µg/mL] | MIC (M. suipneumoniae Str. 11) [µg/mL] | MIC [1] [µg/mL] | MIC (M. suipneumoniae MS 16) [µg/mL] | MIC [2] [µg/mL] | MIC (M. suipneumoniae LABER) [µg/mL] | MIC (M. suipneumoniae UCD 1) [µg/mL] | MIC (M. suipneumoniae TAM 6N) [µg/mL] | MIC [3] [µg/mL] | MIC (M. hyorhinis ATCC 23234) [µg/mL] | MIC (M. hyorhinis ATCC 25021) [µg/mL] | MIC [4] [µg/mL] | MIC [5] [µg/mL] | MIC (Staph. aureus Oxford) [µg/mL] | MIC [6] [µg/mL] | MIC [7] [µg/mL] | MIC (Strep. 2788-B) [µg/mL] | MIC (Strep. pneumoniae CN33) [µg/mL] | MIC (M. bovis NCTC 10131) [µg/mL] | further results
1 | C/C(=C\C(=O)OCc1ccccc1C#N)CC1OCC(CC2OC2C(C)C(C)O)C(O)C1O (centres unmarked) [Example 1, o-Cyanobenzyl monate A] | 1 (≈ 2.18 µM) | 1 (≈ 2.18 µM) | 1 (≈ 2.18 µM) | 1 (≈ 2.18 µM) | 0.5 (≈ 1.09 µM) | 0.5 (≈ 1.09 µM) | 0.5 (≈ 1.09 µM) | 1 (≈ 2.18 µM) | 2.5 (≈ 5.44 µM) | 0.5 (≈ 1.09 µM) | 0.5 (≈ 1.09 µM) | 0.5 (≈ 1.09 µM) | ≤ 0.01 | ≤ 0.01 | 1.25 (≈ 2.72 µM) | 0.25 (≈ 0.544 µM) | 0.25 (≈ 0.544 µM) | 5 (≈ 10.9 µM) | 1 (≈ 2.18 µM) | – | MIC [8]: 0.5 µg/mL (≈ 1.09 µM)
2 | C/C(=C\C(=O)OCc1cc(C#N)cc(C#N)c1)CC1OCC(CC2OC2C(C)C(C)O)C(O)C1O (centres unmarked) [Example 6, 3,5-Dicyanobenzyl monate A] | 0.1 (≈ 0.206 µM) | 0.1 (≈ 0.206 µM) | 0.05 (≈ 0.103 µM) | 0.1 (≈ 0.206 µM) | 0.05 (≈ 0.103 µM) | 0.05 (≈ 0.103 µM) | 0.05 (≈ 0.103 µM) | 0.1 (≈ 0.206 µM) | 0.1 (≈ 0.206 µM) | 0.05 (≈ 0.103 µM) | 0.05 (≈ 0.103 µM) | 0.05 (≈ 0.103 µM) | 0.1 (≈ 0.206 µM) | 0.025 (≈ 0.0516 µM) | 5 (≈ 10.3 µM) | 0.5 (≈ 1.03 µM) | – | – | – | 0.025 (≈ 0.0516 µM) | MIC [8]: 1 µg/mL (≈ 2.06 µM)
3 | C/C(=C\C(=O)OCc1ccc(C#N)cc1)CC1OCC(CC2OC2C(C)C(C)O)C(O)C1O (centres unmarked) [Example 3, p-Cyanobenzyl monate A] | 0.25 (≈ 0.544 µM) | 0.25 (≈ 0.544 µM) | 0.1 (≈ 0.218 µM) | 0.25 (≈ 0.544 µM) | 0.1 (≈ 0.218 µM) | 0.1 (≈ 0.218 µM) | 0.1 (≈ 0.218 µM) | 0.25 (≈ 0.544 µM) | 0.25 (≈ 0.544 µM) | 0.25 (≈ 0.544 µM) | 0.1 (≈ 0.218 µM) | 0.1 (≈ 0.218 µM) | < 0.01 | ≤ 0.01 | 0.312 (≈ 0.679 µM) | 0.1 (≈ 0.218 µM) | – | 0.5 (≈ 1.09 µM) | 0.25 (≈ 0.544 µM) | < 0.01 | MIC [8]: 0.1 µg/mL (≈ 0.218 µM); MIC [9]: 20 µg/mL (≈ 43.5 µM); MIC [10]: 10 µg/mL (≈ 21.8 µM); MIC [11]: 40 µg/mL (≈ 87 µM); MIC [12]: 5 µg/mL (≈ 10.9 µM); MIC [13]: 10 µg/mL (≈ 21.8 µM); MIC [14]: 10 µg/mL (≈ 21.8 µM); MIC [15]: 5 µg/mL (≈ 10.9 µM)
4 | C/C(=C\C(=O)OCc1cccc(C#N)c1)CC1OCC(CC2OC2C(C)C(C)O)C(O)C1O (centres unmarked) [Example 2, m-Cyanobenzyl monate A] | 0.1 (≈ 0.218 µM) | 0.1 (≈ 0.218 µM) | 0.05 (≈ 0.109 µM) | 0.05 (≈ 0.109 µM) | 0.05 (≈ 0.109 µM) | 0.05 (≈ 0.109 µM) | 0.05 (≈ 0.109 µM) | 0.1 (≈ 0.218 µM) | 0.1 (≈ 0.218 µM) | 0.05 (≈ 0.109 µM) | 0.025 (≈ 0.0544 µM) | 0.025 (≈ 0.0544 µM) | 0.05 (≈ 0.109 µM) | ≤ 0.01 | 0.625 (≈ 1.36 µM) | 0.1 (≈ 0.218 µM) | 0.1 (≈ 0.218 µM) | – | 0.5 (≈ 1.09 µM) | ≤ 0.01 | MIC [9]: 10 µg/mL (≈ 21.8 µM); MIC [10]: 10 µg/mL (≈ 21.8 µM); MIC [11]: 10 µg/mL (≈ 21.8 µM); MIC [13]: 10 µg/mL (≈ 21.8 µM); MIC [14]: 10 µg/mL (≈ 21.8 µM)
5 | C/C(=C\C(=O)OCc1cccc(C#N)c1)CC1OCC(C/C=C/C(C)C(C)O)C(O)C1O (centres unmarked) [Example 5, m-Cyanobenzyl monate C] | 1 (≈ 2.25 µM) | 1 (≈ 2.25 µM) | 0.5 (≈ 1.13 µM) | 1 (≈ 2.25 µM) | 0.5 (≈ 1.13 µM) | 0.5 (≈ 1.13 µM) | 0.5 (≈ 1.13 µM) | 1 (≈ 2.25 µM) | 1 (≈ 2.25 µM) | 0.5 (≈ 1.13 µM) | 0.5 (≈ 1.13 µM) | 0.5 (≈ 1.13 µM) | 0.5 (≈ 1.13 µM) | 0.1 (≈ 0.225 µM) | 2.5 (≈ 5.64 µM) | – | 2.5 (≈ 5.64 µM) | 5 (≈ 11.3 µM) | – | 0.05 (≈ 0.113 µM) | MIC [8]: 2.5 µg/mL (≈ 5.64 µM)
6 | C/C(=C\C(=O)OC(C)c1ccc(C#N)cc1)CC1OCC(CC2OC2C(C)C(C)O)C(O)C1O (centres unmarked) [Example 4, 1-(p-Cyanophenyl)ethyl monate A] | 1 (≈ 2.11 µM) | 2.5 (≈ 5.28 µM) | 1 (≈ 2.11 µM) | 2.5 (≈ 5.28 µM) | 1 (≈ 2.11 µM) | 1 (≈ 2.11 µM) | 1 (≈ 2.11 µM) | 1 (≈ 2.11 µM) | 2.5 (≈ 5.28 µM) | 1 (≈ 2.11 µM) | 0.5 (≈ 1.06 µM) | 0.5 (≈ 1.06 µM) | 0.1 (≈ 0.211 µM) | 0.025 (≈ 0.0528 µM) | 2.5 (≈ 5.28 µM) | 0.5 (≈ 1.06 µM) | 0.5 (≈ 1.06 µM) | 5 (≈ 10.6 µM) | 2.5 (≈ 5.28 µM) | ≤ 0.01 | –
